Bounds are passed on as bounds.

The target of this experiment is T1, p38α (Homo sapiens, UniProt Q16539).
T1 construct: GST-tagged fusion protein corresponding to full-length human p38α; purchased Upstate 14-251; host or cells: E. coli
T1 sequence (Q16539 whole entry, the tested form may be a part): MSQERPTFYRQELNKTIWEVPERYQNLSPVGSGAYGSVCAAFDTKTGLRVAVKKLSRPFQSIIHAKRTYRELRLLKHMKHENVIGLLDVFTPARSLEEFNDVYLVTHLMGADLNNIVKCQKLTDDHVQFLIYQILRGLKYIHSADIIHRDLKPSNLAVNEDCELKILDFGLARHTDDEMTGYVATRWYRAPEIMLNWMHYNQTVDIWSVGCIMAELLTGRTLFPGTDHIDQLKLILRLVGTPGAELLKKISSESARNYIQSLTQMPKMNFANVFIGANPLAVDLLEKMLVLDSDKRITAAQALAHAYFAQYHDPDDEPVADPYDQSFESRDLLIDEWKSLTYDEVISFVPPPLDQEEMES
Put plainly: Inhibition of p38α enzyme activity (IMAP fluorescence polarisation kinase assay). Conditions: at 1 μM compound; ATP 20 μM; 2 h at RT. Type of experiment: biochemical. Here is the method: Inhibition of p38α Enzyme Activity:
Compound stocks in 100% DMSO are first diluted in DMSO to a concentration of 1×10^−3 up to 3.2×10^−8 M and then further diluted in kinase assay buffer (10 mM Tris-HCl, pH 7.2, 10 mM MgCl2, 0.01% tween 20, 0.05% NaN3, 1 mM dithiothreitol) to a concentration range of 4×10^−5 up to 1.3×10^−9 M. Of each compound solution 5 μL is transferred into a 384-wells black Optiplate (Packard, 6007279), followed by the addition of 5 μL of ATP (Boehringer, 519987), 5 μL of Fluorescein-labeled EGFR (Epidermal Growth Factor Receptor) peptide substrate and 5 μL of active p38 cc kinase (GST-tagged fusion protein corresponding to full-length human p38α; expressed in E. coli by Upstate, 14-251), all diluted in kinase assay buffer (see final concentrations in Table 1). The mixture is incubated for 2 h at room temperature (RT). The reaction is stopped by the addition of 60 μL of IMAP binding reagent, which has been diluted 400-fold in IMAP binding buffer (stock concentration 5 times diluted in Milli Q). After incubation for 30 min at RT, FP is measured on an Analyst™ multimode fluorescence plate reader (Molecular Devices) at excitation wavelength of 485 nm and emission wavelength of 530 nm (1 sec/well).
Data handling is performed as follows: percentage effects are calculated based on no-p38-enzyme-addition as the maximum inhibitory effect and with p38 enzyme addition as the minimum inhibitory effect. In each experiment, individual compound concentrations are tested in duplicate and percentage effect is calculated for each concentration.
On the technique in general: Fluorescence polarisation rises when a labelled molecule tumbles more slowly, as on binding a larger partner.
Regarding `Cc1nc2cc(-c3ccnc(N[C@@H](C)c4ccccc4)n3)c(-c3ccc(F)cc3)nc2s1` [Example 56, (S)-{4-[5-(4-Fluoro-phenyl)-2-methyl-thiazolo[5,4-b]pyridin-6-yl]-pyrimidin-2-yl}-(1-phenyl-ethyl)-amine], the inhibition at 1 µM was greater than 50%.

The compound `Cn1c(CO)cc2nc(-c3ccc(F)cc3)c(-c3ccncc3)c(-c3ccc(F)cc3)c21` [Example 6, [5,7-Bis(4-fluorophenyl)-1-methyl-6-(4-pyridyl)pyrrolo[3,2-b]pyridin-2-yl]methanol] came in with an inhibition at 1 µM greater than 50%.

With `CC(=O)c1nc2nc(-c3ccc(F)cc3)c(-c3ccncc3)c(-c3ccc(F)cc3)c2n1C` [Example 19, 1-[5,7-Bis(4-fluorophenyl)-1-methyl-6-(4-pyridyl)imidazo[4,5-b]pyridin-2-yl]ethanone], the inhibition at 1 µM is greater than 50%.

In the case of `CC(C)(O)c1cc2c(-c3ccc(F)cc3)c(-c3ccncc3)c(-c3ccc(F)cc3)nc2o1` [Example 16, 2-[4,6-Bis-(4-fluorophenyl)-5-(4-pyridyl)furo[2,3-b]pyridin-2-yl]propan-2-ol], the inhibition at 1 µM is greater than 50%.

The compound `CC(=O)c1cc2nc(-c3ccc(F)cc3)c(-c3ccncc3)c(-c3ccc(F)cc3)c2n1C` [Example 21, 1-[5,7-Bis(4-fluorophenyl)-1-methyl-6-(4-pyridyl)pyrrolo[3,2-b]pyridin-2-yl]ethanone] displayed an inhibition at 1 µM greater than 50%.

Take `CCOC(=O)c1nc2nc(-c3ccc(F)cc3)c(-c3ccncc3)c(-c3ccc(F)cc3)c2n1C` [Example 5, Ethyl 5,7-bis(4-fluorophenyl)-1-methyl-6-(4-pyridyl)imidazo[4,5-b]pyridine-2-carboxylate]: the inhibition at 1 µM was greater than 50%.

Turning to `O=C(NCCO)c1cc2c(-c3ccc(F)cc3)c(-c3ccncc3)c(-c3ccc(F)cc3)nc2o1` [Example 27, 4,6-Bis-(4-fluoro-phenyl)-5-pyridin-4-yl-furo[2,3-b]pyridine-2-carboxylic acid (2-hydroxy-ethyl)-amide], the inhibition at 1 µM is greater than 50%.

For `Fc1ccc(-c2nc3cn[nH]c3c(-c3ccc(F)cc3)c2-c2ccncc2)cc1` [Example 53, 5,7-Bis-(4-fluoro-phenyl)-6-pyridin-4-yl-1H-pyrazolo[4,3-b]pyridine], the inhibition at 1 µM is greater than 50%.

Consider `Cn1c(C(C)(C)O)cc2nc(-c3ccc(F)cc3)c(-c3ccncc3)c(-c3ccc(F)cc3)c21` [Example 20, 2-[5,7-Bis(4-fluorophenyl)-1-methyl-6-(4-pyridyl)pyrrolo[3,2-b]pyridin-2-yl]propan-2-ol], for which the inhibition at 1 µM is greater than 50%.

The compound `COC(=O)c1cc2c(-c3ccc(F)cc3)c(-c3ccncc3)c(-c3ccc(F)cc3)nc2o1` [Example 2, Methyl 4,6-bis(4-fluorophenyl)-5-(4-pyridyl)furo[2,3-b]pyridine-2-carboxylate] yielded an inhibition at 1 µM greater than 50%.

As for `Cn1ccc2nc(-c3ccc(F)cc3)c(-c3ccncc3)c(-c3ccc(F)cc3)c21` [Example 37, 5,7-Bis-(4-fluoro-phenyl)-1-methyl-6-pyridin-4-yl-1H-pyrrolo[3,2-b]pyridine], the inhibition at 1 µM was greater than 50%.

The term inhibition denotes the drop in the measured response relative to a control, in per cent.

These data come from patent publication US20080318977A1, “Condensed Pyridines as Kinase Inhibitors” (Palau Pharma, S.A., priority 2004, published 2008).
